The record followed here is patent US5798350A, “Dopamine receptor ligands” (Allelix Biopharmaceuticals, Inc., priority 1996, dated 1998).

The target in assay [1] is T1, human D4 receptor (D4.2 sub-type) (Homo sapiens, UniProt P21917, DEL265-296).
T1 construct: expressed in transfected cells; host or cells: HEK 298 (human embryonic kidney) cells, [sic]; homogenate of stably transfected cells
T1 sequence (P21917 with tags, fused parts or gaps DEL265-296): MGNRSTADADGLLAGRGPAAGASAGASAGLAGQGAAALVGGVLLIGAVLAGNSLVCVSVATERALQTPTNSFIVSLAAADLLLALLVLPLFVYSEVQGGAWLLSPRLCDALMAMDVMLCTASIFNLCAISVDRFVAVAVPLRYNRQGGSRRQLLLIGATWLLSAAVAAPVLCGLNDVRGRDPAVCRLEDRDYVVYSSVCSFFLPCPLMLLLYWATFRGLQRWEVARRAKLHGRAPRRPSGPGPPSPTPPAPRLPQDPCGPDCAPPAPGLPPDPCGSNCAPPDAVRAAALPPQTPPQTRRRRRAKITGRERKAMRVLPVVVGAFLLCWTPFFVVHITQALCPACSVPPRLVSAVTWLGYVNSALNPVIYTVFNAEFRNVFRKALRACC
The experiment in a line: D4 receptor binding, displacement of 3H-spiperone. Conditions: for Ki: human D4 receptor, 3H-spiperone 0.25 nM. Here is the method:
(§1) The potency of the test compound to reduce ^3 H-spiperone binding directly correlated to its binding affinity for the receptor.
The cells were then centrifuged in a Sorval centrifuge for 10 minutes, 5000 rpm (GS3 rotor) and the pellets quickly frozen in liquid nitrogen and stored at -80° C. until used in binding assay. When used in the assay, cells were thawed on ice for 20 minutes and then 10 mL of incubation buffer (50 mM Tris, 1 mM EDTA, 4 mM MgCl2, 5 mM KCl, 1.5 mM CaCl2, 120 mM NaCl, pH7.4) was added. […] Concentration of receptor protein was determined using the Pierce BCA assay.
(§2) Total Spiperone Binding Assay
(§3) The tubes were vortexed and incubated at room temperature for 90 minutes. The binding reaction was stopped by filtering using a Brandell Cell Harvester. The samples were filtered under vacuum over glass fibre filters (Whatman GF/B) presoaked for 2 hours in 0.3% polyethyleneimine (PEI) in 50 mM Tris buffer (pH7.4). The filters were then washed 3 times with 5 mL ice cold 50 mM Tris buffer (pH7.4). Individual filter disks were put in scintillation vials (Biovials, Bechman). Ready Protein Plus liquid scintillant (5 mL, Beckman) was added and the vials counted by liquid scintillation spectrophotometry (Beckman LSC 6500) after equilibrating for three hours at room temperature to determine total binding (BT).
Non-Specific Binding Assay for D4
The tubes were vortexed and incubated at room temperature for 90 minutes at which time the binding reaction was stopped by filtering. The filters were washed and counted using the same procedure as in the total binding assay described above to give the non-specific binding value (NSB).
(§4) Displacement Binding Assay
(§5) The incubation was started by the addition to 12×75 mm polypropylene tubes 500 μl (50 μg protein) membrane homogenate to a solution of 400 μl incubation buffer, 100 μl (0.25 final conc.) ^3 H-spiperone (90Ci/mmol, Amersham, diluted in borosilicate glass vial to) and […] of test compound that was prepared from 1 mM stock dissolved in DMSO and stored at -20° C. in polypropylene cryogenic storage vials until dilution in incubation buffer in borosilicate glass vials. The tubes were vortexed and incubated at room temperature for 90 minutes at which time the binding reaction was stopped by filtering. The filters were washed and counted using the same procedure as in the total binding assay described above to give the displacement binding value (BD).
IC50 was determined from an inhibition response curve, logit-log plot of %B/BO vs concentration of test compound.
(§6) Ki was calculated by the Cheng and Prustoff transformation: […]
(§7) where [L] is the concentration of ^3 H-spiperone used in the assay and KD is the to dissociation constant of ^3 H-spiperone determined independently under the same binding conditions.

Assay [2] concerns the target T2, human D2 receptor (short isoform) (Homo sapiens, UniProt P14416).
T2 construct: membrane homogenate, 3H-spiperone displacement
The experiment in a line: D2 receptor binding, displacement of 3H-spiperone (GH4C1 cells), for D2/D4 selectivity. Conditions: for D2/D4: D4 selectivity, ratio D2/D4. Here is the method: as §1
GH4 C1 (rat pituitary) cells stably transfected with the human D2 receptor (short isoform) were grown in CO2 independent media in roller bottles (1500 cm^2) for 10 days. 100 μM ZnSO4 was added to the cells (the D2 promoter being zinc inducible). After 16 hours, fresh media was added to allow the cells to recover for 24 hours. The cells were harvested using versene and then centrifuged in a Sorval centrifuge for 10 minutes, at 5000 rpm (GS3 rotor). Pellets were quickly frozen in liquid nitrogen and stored at -80° C. until used in the binding assays. When used in the assay, cells were thawed on ice for 20 minutes. […] 10 mL of incubation buffer was added to the pellets which were then vortexed, resuspended and homogenized with a Kinematica CH-6010 Kriens-LU homogenizer for 15 seconds at setting 7. The receptor protein concentration was determined using the Pierce BCA assay.
as §2
as §3, with “The incubation was started by the addition of 500 μl (50 μg protein) membrane homogenate to a solution of 900 μl incubation buffer and 100 μl (0.25 nM final conc.) ^3 H-spiperone (90 Ci/mmol Amersham diluted in borosilicate glass vial) in 12×75 mm polypropylene tubes. The tubes” for “The tubes”
Non-Specific Binding Assay for D2
This assay employed the same procedures as the non-specific binding assay for D4 with the exception that 2 μM (final conc.) of (-) sulpiride (Research Chemicals Inc.) was used in place of dopamine.
as §4, §5
Specific binding in the absence of test compound (BO) was the difference of total binding (BT) minus non-specific binding (NSB) and similarly specific binding (in the presence of test compound) (B) was the difference of displacement binding (BD) minus non-specific binding (NSB). IC50 was determined from an inhibition response curve, logit-log plot of %B/BO vs concentration of test compound.
as §6, §7
In general terms: Displacement assays read how much labelled ligand stays bound in the presence of the test substance.

Setting [3] is: compared with corresponding 4-methyl piperazine compound.

For orientation: Ki means the dissociation constant of the complex between target and ligand, obtained from inhibition or displacement.

Structures are written as SMILES.

T2 sequence (P14416 with tags, fused parts or gaps DEL242-270): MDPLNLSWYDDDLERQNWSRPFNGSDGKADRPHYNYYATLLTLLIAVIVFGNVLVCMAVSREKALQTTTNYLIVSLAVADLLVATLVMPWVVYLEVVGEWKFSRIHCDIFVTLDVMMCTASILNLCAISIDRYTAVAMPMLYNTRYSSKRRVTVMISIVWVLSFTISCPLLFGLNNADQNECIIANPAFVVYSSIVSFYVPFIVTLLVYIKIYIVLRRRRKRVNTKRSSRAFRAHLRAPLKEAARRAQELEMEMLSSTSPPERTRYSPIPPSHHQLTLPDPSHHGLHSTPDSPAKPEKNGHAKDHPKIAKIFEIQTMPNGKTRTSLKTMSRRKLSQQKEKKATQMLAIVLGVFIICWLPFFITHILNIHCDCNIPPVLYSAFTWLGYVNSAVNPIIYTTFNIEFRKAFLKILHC

`Clc1ccc2c(c1)C=C(N1CCN(Cc3ccc4c(c3)OCO4)CC1)c1ccccc1S2` [2-chloro-10-(4-piperonyl-1-piperazinyl)dibenzo[b,f]thiepine]: the Ki in assay [1] was found to be 8.3 nM. In addition, the D2/D4 in assay [2] is 15.9. In addition, the D4 selectivity entry in assay [2] (compared with clozapine) is on record as “better D4 selectivity than clozapine”.
Take `Clc1ccc2c(c1)Nc1ccccc1N=C2N1CCN(Cc2ccc3c(c2)OCO3)CC1` [3-chloro-11-(4-piperonyl-1-piperazinyl)-5H-dibenzo[b,e][1,4]diazepine]: the Ki in assay [1] was 23.5 nM. Moreover, in assay [2], the D2/D4 was found to be 24.9. Besides, the D4 selectivity result in assay [2] (compared with clozapine) was “better D4 selectivity than clozapine”.
Consider `Clc1ccc2c(c1)N=C(N1CCN(Cc3ccc4c(c3)OCO4)CC1)c1ccccc1O2` [8-chloro-11-(4-piperonyl)-1-piperazinyl)dibenz[b,f][1,4]oxazepine], for which, in assay [1] (compared with clozapine), the D4 affinity result was “better D4 affinity than clozapine”. Also, the “D4 affinity and selectivity” value was “better D4 affinity and selectivity than clozapine” in assay [1] (compared with clozapine); “better than clozapine and the corresponding 4-methyl compound” in assay [1] (compared with clozapine and the corresponding 4-methyl compound); “better D4 affinity and selectivity than the corresponding 4-methyl piperazine compound” in assay [1] (setting [3]). In addition, the Ki in assay [1] worked out at 4 nM. Also, in assay [2], the D2/D4 is 23.8. The D4 selectivity entry in assay [2] (compared with clozapine) is “better D4 selectivity than clozapine”; in assay [2] (setting [3]), “better D4selectivity than the corresponding 4-methyl piperazine compound”.
Consider `c1ccc2c(c1)N=C(N1CCN(Cc3ccc4c(c3)OCO4)CC1)c1ccccc1O2` [11-(4-piperonyl)-1-piperazinyl)-dibenz[b,f][1,4]oxazepine], for which, in assay [1] (setting [3]), the “D4 affinity and selectivity” value was “better D4 affinity and selectivity than the corresponding 4-methyl piperazine compound”. In assay [1], this compound registered an inhibition constant Ki of 30 nM. Besides, in assay [2], the D2/D4 is 32.7. Moreover, the D4 selectivity entry in assay [2] (compared with clozapine) was “better D4 selectivity than clozapine”; in assay [2] (setting [3]), “better D4selectivity than the corresponding 4-methyl piperazine compound”.
